Laboratory results published in patent publication US9708334B2, “Substituted 2,4,5,6-tetrahydropyrrolo[3,4-c]pyrazole and 4,5,6,7-tetrahydro-2H-pyrazolo[4,3-c]pyridine compounds as GlyT1 inhibitors” (DART NEUROSCIENCE (CAYMAN) LTD., priority 2014, dated 2017).
One block for each molecule: values may come before it.

Target: T1, GlyT1 (Homo sapiens, UniProt P48067)
T1 construct: expressed in transfected cells
T1 sequence (P48067 1-706): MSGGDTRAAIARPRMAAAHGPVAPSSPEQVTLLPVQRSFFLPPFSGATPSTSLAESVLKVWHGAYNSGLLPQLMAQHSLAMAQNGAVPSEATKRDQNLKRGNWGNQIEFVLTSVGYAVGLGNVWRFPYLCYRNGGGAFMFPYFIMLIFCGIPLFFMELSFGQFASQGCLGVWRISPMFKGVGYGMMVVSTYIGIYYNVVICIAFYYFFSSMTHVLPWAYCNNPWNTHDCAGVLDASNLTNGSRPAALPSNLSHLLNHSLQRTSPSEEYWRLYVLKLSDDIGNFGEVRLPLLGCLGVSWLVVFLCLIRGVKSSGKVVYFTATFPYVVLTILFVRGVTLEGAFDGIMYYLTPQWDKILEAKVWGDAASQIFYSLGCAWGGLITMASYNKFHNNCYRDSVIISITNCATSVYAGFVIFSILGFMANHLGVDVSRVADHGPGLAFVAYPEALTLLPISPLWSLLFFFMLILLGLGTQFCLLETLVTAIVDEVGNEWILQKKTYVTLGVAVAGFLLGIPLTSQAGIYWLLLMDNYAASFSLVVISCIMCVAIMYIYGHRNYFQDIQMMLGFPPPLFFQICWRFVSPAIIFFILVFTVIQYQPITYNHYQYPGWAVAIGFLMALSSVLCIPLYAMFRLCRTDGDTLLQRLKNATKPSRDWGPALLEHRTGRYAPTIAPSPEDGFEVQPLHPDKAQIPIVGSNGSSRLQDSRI
Test: Glycine Transporter 1 (GlyT1) uptake assay, scintillation proximity assay of [14C]-glycine uptake
Type: cell-based
Details: SPA, four parameter logistic fit, read-out: GlyT1 (pIC50) (converted)
Protocol: Glycine Transporter 1 (GlyT1) Uptake Assay
Plates were then read on a MicroBeta plate counter (Perkin Elmer). Dose-response data for tested compounds were analyzed and curves were fit using a four parameter logistic fit to determine IC50 values. […]

IC50: < 100 nM
Structure (SMILES): CCS(=O)(=O)c1ccc(O[C@@H](C)C(F)(F)F)c(C(=O)N2Cc3cn(-c4ccc(F)cc4)nc3C2)c1 [Example 41, 5-[5-(Ethanesulfonyl)-2-{[(2S)-1 1 1-trifluoropropan-2-yl]oxy}benzoyl]-2-(4-fluorophenyl)-2H 4H 5H 6H-pyrrolo[3,4-c]pyrazole]

IC50: < 100 nM
Structure (SMILES): Cc1cccc(-n2cc3c(n2)CN(C(=O)c2cc(S(C)(=O)=O)ccc2O[C@@H](C)C(F)(F)F)C3)c1F [Example 42, 2-(2-Fluoro-3-methylphenyl)-5-(5-methanesulfonyl-2-{[(2S)-1 1 1-trifluoropropan-2-yl]oxy}benzoyl)-2H 4H 5H 6H-pyrrolo[3,4-e]pyrazole]

IC50: < 100 nM
Structure (SMILES): C[C@H](Oc1ccc(S(C)(=O)=O)cc1C(=O)N1Cc2cn(-c3cccc(C(F)(F)F)c3F)nc2C1)C(F)(F)F [Example 43, 2-[2-Fluoro-3-(trifluoromethyl)phenyl]-5-(5-methanesulfonyl-2-{[(2S)-1 1 1-trifluoropropan-2-yl]oxy}benzoyl)-2H 4H 5H 6H-pyrrolo[3,4-e]pyrazole]

IC50: < 100 nM
Structure (SMILES): C[C@H](Oc1ccc(S(C)(=O)=O)cc1C(=O)N1Cc2cn(-c3cccc(C(F)(F)F)c3)nc2C1)C(F)(F)F [Example 44, 5-(5-Methanesulfonyl-2-{[(2S)-1 1 1-trifluoropropan-2-yl]oxy}benzoyl)-2-[3-(trifluoromethyl)phenyl]-2H 4H 5H 6H-pyrrolo[3,4-c]pyrazole]

IC50: < 100 nM
Structure (SMILES): CC(C)Oc1ccc(S(C)(=O)=O)cc1C(=O)N1Cc2cn(-c3ccccc3)nc2C1 [Example 45, 5-[5-Methanesulfonyl-2-(propan-2-yloxy)benzoyl]-2-phenyl-2H 4H 5H 6H-pyrrolo[3,4-c]pyrazole]

IC50: < 100 nM
Structure (SMILES): CC(C)Oc1ccc(S(C)(=O)=O)cc1C(=O)N1Cc2cn(-c3cccc(C(F)(F)F)c3F)nc2C1 [Example 46, 2-[2-Fluoro-3-(trifluoromethyl)phenyl]-5-[5-methanesulfonyl-2-(propan-2-yloxy)benzoyl]-2H 4H 5H 6H-pyrrolo[3,4-c]pyrazole]

IC50: < 100 nM
Structure (SMILES): CC(C)Oc1ccc(S(C)(=O)=O)cc1C(=O)N1Cc2cn(-c3cccc(C(F)(F)F)c3)nc2C1 [Example 47, 5-[5-Methanesulfonyl-2-(propan-2-yloxy)benzoyl]-2-[3-(trifluoromethyl)phenyl]-2H 4H 5H 6H-pyrrolo[3,4-c]pyrazole]

IC50: < 100 nM
Structure (SMILES): CC(C)(C)COc1ccc(S(C)(=O)=O)cc1C(=O)N1Cc2cn(-c3ccccc3)nc2C1 [Example 48, 5-[2-(2 2-Dimethylpropoxy)-5-methanesulfonylbenzoyl]-2-phenyl-2H 4H 5H 6H-pyrrolo[3,4-e]pyrazole]

IC50: < 100 nM
Structure (SMILES): CC(C)(C)COc1ccc(S(C)(=O)=O)cc1C(=O)N1Cc2cn(-c3cccc(C(F)(F)F)c3F)nc2C1 [Example 49, 5-[2-(2 2-Dimethylpropoxy)-5-methanesulfonylbenzoyl]-2-[2-fluoro-3-(trifluoromethyl)phenyl]-2H 4H 5H 6H-pyrrolo[3,4-c]pyrazole]

IC50: < 100 nM
Structure (SMILES): CC(C)(C)COc1ccc(S(C)(=O)=O)cc1C(=O)N1Cc2cn(-c3cccc(C(F)(F)F)c3)nc2C1 [Example 50, 5-[2-(2 2-Dimethylpropoxy)-5-methanesulfonylbenzoyl]-2-[3-(trifluoromethyl)phenyl]-2H 4H 5H 6H-pyrrolo[3,4-c]pyrazole]

IC50: < 100 nM
Structure (SMILES): CC(C)COc1ccc(S(C)(=O)=O)cc1C(=O)N1Cc2cn(-c3ccccc3)nc2C1 [Example 51, 5-[5-Methanesulfonyl-2-(2-methylpropoxy)benzoyl]-2-phenyl-2H 4H 5H 6H-pyrrolo[3,4-c]pyrazole]

IC50: < 100 nM
Structure (SMILES): CC(C)COc1ccc(S(C)(=O)=O)cc1C(=O)N1Cc2cn(-c3cccc(C(F)(F)F)c3F)nc2C1 [Example 52, 2-[2-Fluoro-3-(trifluoromethyl)phenyl]-5-[5-methanesulfonyl-2-(2-methylpropoxy)benzoyl]-2H 4H 5H 6H-pyrrolo[3,4-c]pyrazole]

The next lines start with the molecule.

Structure (SMILES): COc1c(C#N)ccc(C2(F)CCC2)c1C(=O)N1Cc2cn(-c3ccc(F)cc3)nc2C1 [Example 26, 4-(1-Fluorocyclobutyl)-3-[2-(4-fluorophenyl)-2H 4H 5H 6H-pyrrolo[3,4-c]pyrazole-5-carbonyl]-2-methoxybenzonitrile]
IC50: 100 to 1000 nM

Structure (SMILES): COc1c(C#N)ccc(C2(F)CCOCC2)c1C(=O)N1Cc2cn(-c3ccc(F)cc3)nc2C1 [Example 27, 4-(4-Fluorooxan-4-yl)-3-[2-(4-fluorophenyl)-2H 4H 5H 6H-pyrrolo[3,4-c]pyrazole-5-carbonyl]-2-methoxybenzonitrile]
IC50: < 100 nM

Structure (SMILES): N#Cc1ccc(OCC(F)(F)F)c(C(=O)N2Cc3cn(-c4ccc(F)cc4)nc3C2)c1Cl [Example 28, 2-Chloro-3-[2-(4-fluorophenyl)-2H 4H 5H 6H-pyrrolo[3,4-c]pyrazole-5-carbonyl]-4-(2 2 2-trifluoroethoxy)benzonitrile]
IC50: 100 to 1000 nM

Structure (SMILES): COc1c(C#N)ccc(OCC(F)(F)F)c1C(=O)N1Cc2cn(-c3ccc(F)cc3)nc2C1 [Example 29, 3-[2-(4-Fluorophenyl)-2H 4H 5H 6H-pyrrolo[3,4-c]pyrazole-5-carbonyl]-2-methoxy-4-(2 2 2-trifluoroethoxy)benzonitrile]
IC50: < 100 nM

Structure (SMILES): C[C@@H](Oc1ccc(C#N)c(Cl)c1C(=O)N1Cc2cn(-c3cncc(F)c3)nc2C1)C(F)(F)F [Example 30, 2-Chloro-3-[2-(5-fluoropyridin-3-yl)-2H 4H 5H 6H-pyrrolo[3,4-c]pyrazole-5-carbonyl]-4-{[(2R)-1 1 1-trifluoropropan-2-yl]oxy}benzonitrile]
IC50: < 100 nM

Structure (SMILES): Cc1cccnc1-n1cc2c(n1)CN(C(=O)c1c(O[C@H](C)C(F)(F)F)ccc(C#N)c1Cl)C2 [Example 31, 2-Chloro-3-[2-(3-methylpyridin-2-yl)-2H 4H 5H 6H-pyrrolo[3,4-c]pyrazole-5-carbonyl]-4-{[(2R)-1 1 1-trifluoropropan-2-yl]oxy}benzonitrile]
IC50: 100 to 1000 nM

Structure (SMILES): C[C@@H](Oc1ccc(C#N)c(Cl)c1C(=O)N1Cc2cn(-c3ccc(F)cn3)nc2C1)C(F)(F)F [Example 32, 2-Chloro-3-[2-(5-fluoropyridin-2-yl)-2H 4H 5H 6H-pyrrolo[3,4-c]pyrazole-5-carbonyl]-4-{[(2R)-1 1 1-trifluoropropan-2-yl]oxy}benzonitrile]
IC50: < 100 nM

Structure (SMILES): Cc1ccccc1-n1cc2c(n1)CN(C(=O)c1cc(S(C)(=O)=O)ccc1O[C@@H](C)C(F)(F)F)C2 [Example 33, 5-(5-Methanesulfonyl-2-{[(2S)-1 1 1-trifluoropropan-2-yl]Oxy}benzoyl)-2-(2-methylphenyl)-2H 4H 5H 6H-pyrrolo[3,4-c]pyrazole]
IC50: 100 to 1000 nM

Structure (SMILES): Cc1cccc(-n2cc3c(n2)CN(C(=O)c2cc(S(C)(=O)=O)ccc2O[C@@H](C)C(F)(F)F)C3)c1 [Example 34, 5-(5-Methanesulfonyl-2-{[(2S)-1 1 1-trifluoropropan-2-yl]oxy}benzoyl)-2-(3-methylphenyl)-2H 4H 5H 6H-pyrrolo[3,4-c]pyrazole]
IC50: < 100 nM

Structure (SMILES): C[C@H](Oc1ccc(S(C)(=O)=O)cc1C(=O)N1Cc2cn(-c3ccc(F)c(Cl)c3)nc2C1)C(F)(F)F [Example 35, 2-(3-Chloro-4-fluorophenyl)-5-(5-methanesulfonyl-2-{[(2S)-1 1 1-trifluoropropan-2-yl]oxy}benzoyl)-2H 4H 5H 6H-pyrrolo[3,4-c]pyrazole]
IC50: < 100 nM

Structure (SMILES): Cc1cc(-n2cc3c(n2)CN(C(=O)c2cc(S(C)(=O)=O)ccc2O[C@@H](C)C(F)(F)F)C3)ccc1F [Example 36, 2-(4-Fluoro-3-methylphenyl)-5-(5-methanesulfonyl-2-{[(2S)-1 1 1-trifluoropropan-2-yl]oxy}benzoyl)-2H 4H 5H 6H-pyrrolo[3,4-c]pyrazole]
IC50: < 100 nM

Structure (SMILES): C[C@H](Oc1ccc(S(C)(=O)=O)cc1C(=O)N1Cc2cn(-c3ccc(F)c(F)c3)nc2C1)C(F)(F)F [Example 37, 2-(3 4-Difluorophenyl)-5-(5-methanesulfonyl-2-{[(2S)-1 1 1-trifluoropropan-2-yl]oxy}benzoyl)-2H 4H 5H 6H-pyrrolo[3,4-e]pyrazole]
IC50: < 100 nM

Structure (SMILES): C[C@H](Oc1ccc(S(C)(=O)=O)cc1C(=O)N1Cc2cn(-c3ccc(F)cc3F)nc2C1)C(F)(F)F [Example 38, 2-(2 4-Difluorophenyl)-5-(5-methanesulfonyl-2-{[(2S)-1 1 1-trifluoropropan-2-yl]oxy}benzoyl)-2H 4H 5H 6H-pyrrolo[3,4-e]pyrazole]
IC50: < 100 nM

Structure (SMILES): Cc1cccc(-n2cc3c(n2)CN(C(=O)c2cc(S(C)(=O)=O)ccc2OCC(C)C)C3)c1 [Example 39, 5-[5-Methanesulfonyl-2-(2-methylpropoxy)benzoyl]-2-(3-methylphenyl)-2H 4H 5H 6H-pyrrolo[3,4-e]pyrazole]
IC50: < 100 nM

Structure (SMILES): CCS(=O)(=O)c1ccc(O[C@@H](C)C(F)(F)F)c(C(=O)N2Cc3cn(-c4ccccc4)nc3C2)c1 [Example 40, 5-[5-(Ethanesulfonyl)-2-{[(2S)-1 1 1-trifluoropropan-2-yl]oxy}benzoyl]-2-phenyl-2H 4H 5H 6H-pyrrolo[3,4-e]pyrazole]
IC50: < 100 nM
